The results in this text go back to patent publication US5451522A, “Genes encoding and method of expressing an enzyme: phthalyl amidase” (priority 1994, dated 1995).

Data set [1] concerns the target T1, phthalyl amidase (Xanthobacter agilis, UniProt P0C2Y0).
T1 construct: 42-aa signal peptide removed
Description: Preparative scale hydrolysis to carbacephem nucleus. In kind it is biochemical. How it is done:
Thus, either compound XXXIII or III can be used to prepare the carbacephem nucleus (XXXIV). Substrate (4 grams) was added to 20 ml of deionized water and the pH of the solution was adjusted to 8.0 with concentrated ammonium hydroxide. Phthalyl amidase, 80 units as determined using the chromogenic substrate (II), was added to start the reaction. Temperature was maintained at 30° C. and the pH maintained at 8.0 by adding 2N ammonium hydroxide. […] The pH of the reaction was lowered to 5.0 thereby precipitating the carbacephem nucleus. Isolated yields of the nucleus were between 65% and 77%. [drawing 26]

The nature of data set [2]: Stability of substrates in buffer without enzyme. It is filed as physicochemical. Particulars: buffer at pH 8.0. As to the method: (§1) The activity of phthalyl amidase against 25 compounds was determined. The compounds were divided into beta-lactams (Table 9), phthalyl amides (Table 10), and aromatic ring substituted amides (Table 11). Each reaction mixture (1 ml total volume) contained 2.5 μmol of compound and 0.3 units of enzyme (based on the chromogenic substrate) of the preparative scale purified enzyme, in 50 mM phosphate buffer, pH 8.0. The reactions were conducted at 30° C. Samples of the reaction mixture were taken at various times, and methanol (equal volume) was added to stop the reaction. The samples were examined by HPLC to determine the extent of substrate hydrolysis. The amount of compound hydrolyzed was calculated from a standard curve of the test compound. All substrates were stable in buffer at 30° C. and pH 8.0 in the absence of enzyme for 24 hours.
Thus, either compound XXXIII or III can be used to prepare the carbacephem nucleus (XXXIV). Substrate (4 grams) was added to 20 ml of deionized water and the pH of the solution was adjusted to 8.0 with concentrated ammonium hydroxide. Phthalyl amidase, 80 units as determined using the chromogenic substrate (II), was added to start the reaction. Temperature was maintained at 30° C. and the pH maintained at 8.0 by adding 2N ammonium hydroxide. […] The pH of the reaction was lowered to 5.0 thereby precipitating the carbacephem nucleus. […]

The target of data set [3] is T1, phthalyl amidase. As to the kind of experiment: Substrate specificity: chemical structure requirements for enzyme activity. In kind it is biochemical. Particulars: 2.5 μmol compound, 0.3 units enzyme, 50 mM phosphate pH 8.0, 30° C. As to the method: as §1
Data set [4] concerns the target T1, phthalyl amidase. As to the kind of experiment: Kinetic parameters for phthalyl amidase. It is filed as biochemical. Conditions: 50 mM potassium phosphate buffer, pH 8.0, 30° C. As to the method:
(§2) The kinetic parameters of the enzyme were determined for several representative substrates. Compounds II, XVII, and XVIII were tested using 0.9 μg/ml of enzyme. Compounds III and XI were tested using 5.14 μg/ml of enzyme. Substrate concentrations were between 0 and 25 mM and reaction time was between 2 and 20 minutes, depending on the substrate used. […] Km is the Michaelis constant for enzyme kinetics, Vmax is the maximal rate of reaction calculated by the Michaelis-Menten equation, and Kcat is the catalytic constant for an enzyme reaction.

Data set [5] addresses T1, phthalyl amidase. Description: Chiral and additional substrate selectivity of phthalyl amidase. In kind it is biochemical. Particulars: Table 13; III = 100; 0.009 mg (0.6 units) enzyme, 2.5 μmol substrate, buffer A, 30° C. As to the method: Several additional substrates were tested in a total volume of 1 ml. […] Reactions were stopped by the addition of methanol, and phthalic acid formation was monitored by HPLC.

Substrate in data set [6]: CCCCCCC(C(=O)O)n1cnc(NC(=O)c2c(F)cccc2C(=O)O)c1
Description: Kinetic parameters for phthalyl amidase. In kind it is biochemical, Xanthobacter agilis. Conditions: other: 32° C., pH 8.2; II, XVII, XVIII with 0.9 μg/ml enzyme, III and XI with 5.14 μg/ml; pH 8.2; 32.0 °C. How it is done: as §2

Substrate in data set [7]: CCCCCCC(C(=O)O)n1cnc(NC(=O)c2ccccc2C(=O)O)c1
As to the kind of experiment: Kinetic parameters for phthalyl amidase. Particulars: other: 32° C., pH 8.2; II, XVII, XVIII with 0.9 μg/ml enzyme, III and XI with 5.14 μg/ml; pH 8.2; 32.0 °C. It is filed as biochemical, Xanthobacter agilis. As to the method:
as §2

Substrate in data set [8]: O=C(O)C1=C(Cl)CCC2C(NC(=O)c3ccccc3C(=O)O)C(=O)N12
As to the kind of experiment: Kinetic parameters for phthalyl amidase. In kind it is biochemical, Xanthobacter agilis. As to the method: as §2

Substrate in data set [9]: O=C(O)CNC(=O)c1ccccc1C(=O)O
As to the kind of experiment: Kinetic parameters for phthalyl amidase. In kind it is biochemical, Xanthobacter agilis. Conditions: other: 32° C., pH 8.2; II, XVII, XVIII with 0.9 μg/ml enzyme, III and XI with 5.14 μg/ml; pH 8.2; 32.0 °C. How it is done:
as §2

Substrate in data set [10]: O=C(O)c1ccccc1C(=O)Nc1ccc([N+](=O)[O-])c(C(=O)O)c1
Description: Kinetic parameters for phthalyl amidase. Conditions: other: 32° C., pH 8.2; II, XVII, XVIII with 0.9 μg/ml enzyme, III and XI with 5.14 μg/ml; pH 8.2; 32.0 °C. In kind it is biochemical, Xanthobacter agilis. As to the method: as §2

Consider `O=C(O)C1=C(Cl)CCC2C(N3C(=O)c4ccccc4C3=O)C(=O)N12` (stereo not shown) [XXXIII], for which the “hydrolyzed (HPLC)” value in [1] (4 grams substrate, 80 units enzyme, pH 8.0, 30° C., after 510 minutes) came out at 98%. For the same molecule, the “hydrolysis of phthalimido to phthalamido form in buffer (in words)” value in data set [2] is reported as “readily hydrolyzes”.

Consider `O=C(O)C1=C(Cl)CCC2C(NC(=O)c3ccccc3C(=O)O)C(=O)N12` (stereo not shown) [III, 7-phthalamido-3-chloro-4-carboxy-1-carba-dethioceph-3-em], for which the Relative Activity in data set [3] (Table 9 beta-lactams, III = 100) is given as 100; in data set [3] (Table 10 phthalyl amides, III = 100.0), 100.0; in data set [5] it was 100. Besides, the Vmax (usually the top rate of the reaction or transport when substrate is in excess) in [4] turned out to be 7.6 µmol/min/mg. The “hydrolyzed (HPLC)” value in data set [1] (phthalyl amidase, […], pH 8) is recorded as 90.0%.

B1: phthalyl amidase (Xanthobacter agilis) (protein)
chain: QAPSVHQHVAFTEEIGDLPDGSSYMIRVPENWNGVLIRDLDLVSGTSNSNAARYETMLKEGFAVAGTARHPLRQWQYDPAHEIENLNHVLDTFEENYGSPERVIQYGCSGGAHVSLAVAEDFSDRVDGSVALAAHTPVWIMNSFLDGWFSLQSLIGEYYVEAGHGPLSDLAITKLPNDGSSNSSGHGMEGDLPAAWRNAFTAANATPEGRARMALAFALGQWSPWLADNTPQPDLDDPEAIADSVYESAMRLAGSPGGEARIMFENAARGQQLSWNDDIDYADFWENSNPAMKSAVQELYDTAGLDLQSDIETVNSQPRIEASQYALDYWNTPGRNVIGDPEVPVLRLHMIGDYQIPYSLVQGYSDLISENNNDDLYRTAFVQSTGHCNFTAAESSAAIEVMMQRLDTGEWPSTEPDDLNAIAEASNTGTEARFMALDGWEIPEYNRTWKPE
notes: 42-aa signal peptide removed
Turning to B1, the Km – broadly, the concentration of substrate that gives half-maximal velocity – in [6] was determined as 170 µM; in data set [7], 90 µM; in [8] (other: 50 mM potassium phosphate buffer, pH 8.0, 30° C., pH 8.0, 30.0 °C), 900 µM; in data set [8] (other: 32° C., pH 8.2, II, XVII, XVIII with 0.9 μg/ml enzyme, III and XI with 5.14 μg/ml, pH 8.2, 32.0 °C) it was 900 µM; in data set [9] it was 140 µM; in data set [10] it was 50 µM.
